Assay results: patent US20240285717A1, “COMPOSITION FOR PREVENTING OR TREATING MUSCULAR DISEASE CONTAINING PONCIRI FRUCTUS EXTRACT” (KOREA INSTITUTE OF SCIENCE AND TECHNOLOGY, priority 2023, published 2024)

Columns and labels:
[1] = system: C2C12 myotube cells; test: Cell viability of C2C12 myotube cells with dexamethasone-induced myoatrophy; format: cell-based, mouse; settings: for viability of myotube cells reduced by dexamethasone treatment, by isolated compounds: each compound at 20 uM, FIG. 13
Description: Cell culture and differentiation of myoblasts: C2C12 mouse (CRL1772; American type cell collection, USA)-derived myoblasts were cultured in Dulbecco's Modified Eagle's Medium (DMEM) medium supplemented with 10 (v/v) % FBS, and after reaching 90% confluence, they were transferred to DMEM medium containing 2 (v/v) % horse serum and cultured for 7 days to differentiate into myotube cells.
After differentiating C2C12 myoblasts into myotube cells, myoatrophy was induced by treatment with 100 µM of Dexamethasone for 24 hours, and then the myoatrophy-induced myotube cells were treated with Ponciri Fructus extract (PT) at concentrations of 5, 10, and 20 ug/ml, respectively, to determine the effect of alleviating myoatrophy.
The effect of each fraction (concentrations 5 ug/ml, 10 ug/ml, 20 ug/ml, 40 ug/ml) prepared according to Example 2 on the viability of […] in which myoatrophy was induced by dexamethasone was analyzed. The assay was performed in the same manner as in Example 1.
The effect of the compounds isolated according to Example 3 (each at a concentration of 20 uM) on the viability of myotube cells in which myoatrophy was induced by dexamethasone was analyzed. The assay was performed in the same manner as in Example 1.
The assay was performed in the same manner as in Example 1.

[2] = system: mice with dexamethasone-induced sarcopenia; test: Muscle force in mice with dexamethasone-induced sarcopenia; format: in vivo, C57BL/6J mice; settings: 4 weeks
Description: (§1) C57BL/6J mice (male, 10 weeks old) were obtained from Doo-yeol Biotech, and after 2 weeks of acclimatization, they were divided into 6 test groups (n=10 per group) according to body weight. The test substance was prepared as a liquid suspension using 0.5% CMC, and the test substance was administered for 4 weeks. To compensate for the placebo effect of 0.5% CMC and the weight loss effect caused by the stress of administration, the vehicle control group was administered 0.5% CMC orally daily. Two weeks after treatment, the experimental group received an intraperitoneal injection of dexamethasone for 2 weeks to induce sarcopenia, while the normal control group received an intraperitoneal injection of saline. All mice were fed the same AIN76 diet (Research Diets) and treated with the test compound for an additional 2 weeks for a total of 4 weeks. The dark:light cycle was maintained at a 12 hr:12 hr interval and water was allowed ad libitum.
The changes in muscle force in mice were determined by the same method as in Example 3 above.

[3] = system: mice with dexamethasone-induced sarcopenia; test: Weight by muscle types in mice with dexamethasone-induced sarcopenia; format: in vivo, C57BL/6J mice
Description: as §1
At the end of a total of 4 weeks of Ponciri Fructus extract administration in Example 3 above, the weight of each type of muscle tissue in all treatment groups was determined.
After a total of 4 weeks of Auraptene administration, the weight of each type of muscle tissue in all treatment groups was determined in Example 8-5 above.

[4] = system: myotube cells; test: Diameter analysis of myotube cells with dexamethasone-induced myoatrophy; format: cell-based, mouse; settings: auraptene 5, 10, 20 uM; dexamethasone 100 uM; FIG. 15
Description: The effect of auraptene (5 uM, 10 uM, 20 uM) on the diameter of myotube cells in which myoatrophy was induced by dexamethasone (100 uM) was analyzed. The results confirmed that the diameter of myotube cells decreased by dexamethasone treatment was restored by auraptene treatment (FIG. 15).

[5] = system: C2C12 myotube cells; test: RT-qPCR of myotube cell differentiation and exercise performance-related gene expression in dexamethasone-treated C2C12 myotube cells; format: cell-based, mouse; settings: auraptene treatment after dexamethasone
Description: C2C12 mouse-derived […] treated with dexamethasone 10 µM were washed twice with PBS, and total RNA was extracted according to the user-recommended protocol of an RNA extraction kit (GeneAll RNA isolation kit, Seoul, South Korea). cDNA was synthesized from the extracted RNA and subjected to real time-quantitative polymerase chain reaction (RT-qPCR). PCR analysis was performed according to the user-recommended cycling conditions of analyzer (Applied Biosystems 7900 HT thermal cycler, Applied Biosystems), and to determine the expression level of each mRNA, fold change values were calculated relative to the control, using beta-actin as an endogeneous control, and relative expression amounts were compared. The primer sequences are as follows Myf5 forward primer: TCCAGGTATTCCCACCTGCT (sequence 1), Myf5 reverse primer: CACCTGGAGCGGATGAAGAAGAAC (sequence 2); Myf6 forward primer: ACAGATCGTCGGAAAGCAGC (sequence 3), Myf6 reverse primer: CACTCCGCAGAATCTCCACC (sequence 4); Myod forward primer: CATAGACTTGACAGGCCCCG (sequence 5), Myod reverse primer: CGGGTCCAGGTCCTCAAAAA (sequence 6); Myog forward primer: AGCTATCCGGTTCCAAAGCC (sequence 7), Myog reverse primer: GCACAGGAGACCTTGGTCAG (sequence 8); Ppard forward primer: GTATGCGCATGGGACTCACT (sequence 9), Ppard reverse primer: ACTGCCTTTACCGTGGGTTT (SEQ ID NO: 10); Ppargcla forward primer: GTTGCCTGCATGAGTGTGTG (SEQ ID NO: 11), Ppargc1a reverse primer: CACATGTCCCAAGCCATCCA (SEQ ID NO: 12). As a result, the gene expressions of Myf5, Myf6, Myod and Myog, markers of myotube cell differentiation, which were decreased by dexamethasone treatment, were increased by Ponciri Fructus extract treatment, and the gene expressions of Ppard and Pgc1a, markers of motor performance, were increased by Ponciri Fructus extract treatment, as shown in FIGS. 2 and 3.
The effect of auraptene on promoting myotube cell differentiation and exercise performance-related gene expression in C2C12 myotube cells with dexamethasone-induced myoatrophy was analyzed. The assay was performed using the same method as in Example 2.

[6] = system: C2C12 myotube cells; test: Oxidative stress and mitochondrial function in dexamethasone-treated C2C12 myotube cells; format: cell-based, mouse; settings: 10 μM dexamethasone 24 hours, then auraptene; FIG. 18
Description: C2C12 myoblasts were differentiated into myotube cells as in Example 1, and then treated with 10 μM dexamethasone for 24 hours to induce oxidative stress or mitochondrial dysfunction, and then treated with auraptene to determine its efficacy in improving function.

[7] = auraptene 10, 50 mg/kg, 4 weeks, vs dexamethasone-treated group, FIG. 20

`C/C(=C\COc1ccc2ccc(=O)oc2c1)C/C=C/C(C)(C)OO` [Compound 12, 7-O-(7′-peroxygeranyl)coumarin] was tested. Which “viability of myotube cells reduced by dexamethasone treatment, by isolated compounds” value [1] did it give?
Its value is “excellently restore”.

Which results are given for `C[C@]12C/C(=C/O)C(=O)C[C@@H]1CC[C@@H]1[C@@H]2CC[C@@]2(C)[C@H]1CC[C@]2(C)O` [Oxymetholone, reference compound]?
muscle force compared to the group treated with Dexamethasone alone ([2]; oral once daily, PT 10, 50, 100 mg/kg, Oxymetholone 50 mg/kg, Dexamethasone 20 mg/kg i.p. 2 weeks, FIGS. 4 and 5): increased; weight of quadriceps muscle ([3]; after 4 weeks, PT 10, 50, 100 mg/kg, Oxymetholone 50 mg/kg, vs Dexamethasone group, FIG. 6): significantly increased; weight of gastrocnemius muscle ([3]; after 4 weeks, PT 10, 50, 100 mg/kg, Oxymetholone 50 mg/kg, vs Dexamethasone group, FIG. 7): significantly increased; weight of tibialis muscle ([3]; after 4 weeks, PT 10, 50, 100 mg/kg, Oxymetholone 50 mg/kg, vs Dexamethasone group, FIG. 8): significantly increased

How did the “viability of myotube cells reduced by dexamethasone treatment, by isolated compounds” value [1] turn out when `O=c1ccc2ccc(O)cc2o1` [Compound 3, Umbelliferone] was run?
Its value is “excellently restore”.

Which “viability of myotube cells reduced by dexamethasone treatment, by isolated compounds” value [1] does the source give for `CC(C)C(=O)Cc1c(OCC2OC2(C)C)ccc2ccc(=O)oc12` (stereo not shown) [Compound 9, Isoponcimarin] here?
The value was “excellently restore”.

With `CC(C)=CCC/C(C)=C/COc1ccc2ccc(=O)oc2c1` [Compound 2, Auraptene] as the compound, how does the “muscle force compared to the dexamethasone-treated group” value ([2]; auraptene 10, 50 mg/kg oral once daily, Dexamethasone 20 mg/kg 2 weeks, FIG. 19) read?
Its value is “increased”.

What about the “diameter of myotube cells decreased by dexamethasone treatment” value [4] of the same compound?
The value was “restored”.

What about the “Myf5 gene expression (myotube cell differentiation marker)” value ([5]; FIG. 16) of the same compound?
The value was “increased”.

What about the “Myod1 gene expression (myotube cell differentiation marker)” value ([5]; FIG. 16) of the same compound?
Its value is “increased”.

And the “Myog gene expression (myotube cell differentiation marker)” value ([5]; FIG. 16)?
The value was “increased”.

What about the “Nrf1 gene expression (motor performance marker)” value ([5]; FIG. 17) of the same compound?
Its value is “increased”.

What about the “Pparg1a gene expression (motor performance marker)” value ([5]; FIG. 17) of the same compound?
Its value is “increased”.

And the “Tomm20 gene expression (motor performance marker)” value ([5]; FIG. 17)?
The value was “increased”.

What about the “UCP3 gene expression (motor performance marker)” value ([5]; FIG. 17) of the same compound?
Its value is “increased”.

And the “glutathione (GSH) content” value [6]?
The value was “increased”.

And the “mitochondrial dysfunction induced by dexamethasone treatment” value [6]?
Its value is “improved”.

And the calf muscle weight [3, 7]?
The calf muscle weight was “significantly increased”.

What about the “longissimus dorsi muscle weight” value [3, 7] of the same compound?
The value was “significantly increased”.

What about the soleus muscle weight [3, 7] of the same compound?
The soleus muscle weight was “significantly increased”.

What about the thigh muscle weight [3, 7] of the same compound?
The thigh muscle weight was “significantly increased”.

What about the “viability of myotube cells reduced by dexamethasone treatment, auraptene by concentration” value ([1]; 5 uM, 10 uM, 20 uM, all experimental groups, FIG. 14) of the same compound?
The value was “restore”.

And the “viability of myotube cells reduced by dexamethasone treatment, by isolated compounds” value [1]?
Its value is “excellently restore”.

What about the “viability of myotube cells reduced by dexamethasone treatment, by isolated compounds” value ([1]; listed as auraptene) of the same compound?
The value was “best effect”.
